Patent publication US20180360042A1, “Liquid fungicide-containing formulations” (BAYER CROPSCIENCE AKTIENGESELLSCHAFT, priority 2015, published 2018)

How the values were obtained:
[1] = Determination of compound (III) content in prothioconazole formulations after storage at 54° C. for 2 weeks; type: physicochemical; conditions: PTZ EC 250 after storage at 54° C. over 2 weeks
Protocol: (§1) Determination of 2-(1-chlorocyclopropyl)-1-(2-chlorophenyl)-3-(1H-1,2,4-triazol-1-yl)propan-2-ol (Compound III) in Formulations
(§2) 2-(1-Chlorocyclopropyl)-1-(2-chlorophenyl)-3-(1H-1,2,4-triazol-1-yl)propan-2-ol is separated from the formulation constituents on a reverse phase column using an isocratic eluent. After MS/MS detection, the quantitative evaluation is conducted by comparing the peak areas with those of the reference object, using an external standard.
(§3) High-pressure liquid chromatograph: HP 1090
(§4) Sample injection: HP 1090 Autoinjector
(§5) Mass spectrometer: Quattro I, Fisons
(§6) Integration and evaluation: MassLynx from Micromass
Example 9: Comparison of Compound (III) Content of the Formulations from Examples 1 to 4 after Storage at 54° C. for 2 Weeks

[2] = Determination of compound (III) content in prothioconazole formulations by HPLC-MS/MS, starting samples; type: physicochemical; conditions: PTZ EC 250 starting sample
Protocol: as §1, §2, §3, §4, §5, §6

[3] = addition of 10% wt/wt Hallcomid vs 0%
[4] = addition of 20% wt/wt Hallcomid vs 0%

reduction in the content of compound (III) [1, 3]: 75% | reduction in the content of compound (III) [1, 4]: 82% | reduction in the content of compound (III) ([1]; addition of 56.9% wt/wt Hallcomid vs 0%): 98% | reduction of the content of compound (III) [2, 3]: 72% | reduction of the content of compound (III) [2, 4]: 76% | reduction of the content of compound (III) ([2]; addition of 54.9% wt/wt Hallcomid vs 0%): 97%
SMILES: C=CCCCCCCCC(=O)N(C)C [Hallcomid®, N,N-dimethyl 9-decenamide]
